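These data come from cells grown in 96-well plates and exposed to compound for 48 hours at five concentrations. Abbreviation: GI50, concentration required for 50% inhibition of growth. At the TGI there is no net growth.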 Where only a bound is given, the exact number is not on record here.

The source of these data is PubChem BioAssay (NCI).

Test systems include ACHN renal; DU-145 prostate; HCT-116 colon; HL-60(TB) leukemia; IGROV1 ovarian; LOX IMVI melanoma; MDA-MB-435; MOLT-4 leukemia; UACC-62 melanoma; UO-31 renal.
What all share (experiment): NCI tumour cell line growth inhibition, 48 h

On to `C/C=C(\N=C=S)C(=O)OC1C(COC(C)=O)OC([C@]2(O)CC(=O)C(=N)C(C(=O)O)=C2O)C(O)C1OC1CC(OC)C(O)([C@@H](C)OC(=O)[C@@H](C)CC)C(C)O1` (some centres undefined), for which the TGI with ACHN renal was found to be 33.1 µM; in the test with DU-145 prostate, 39.2 µM; in the test with HCT-116 colon, 21.9 µM; with HL-60(TB) leukemia, 5.34 µM; in the test on IGROV1 ovarian, 36 µM; in the test with LOX IMVI melanoma it was 17.2 µM. Besides, the TGI in the test with MDA-MB-435 worked out at 35.7 µM; in the test on MOLT-4 leukemia, 14 µM; in the test with UACC-62 melanoma, 10.3 µM; in the test with UO-31 renal it was 33.3 µM.
With `O=C1C=C(NCCO)c2nccc3c2c1nc1ccccc13`, the GI50 in the test on ACHN renal was 16300 nM; with DU-145 prostate it was 24.8 µM; in the test with HCT-116 colon, 11500 nM; in the test on HL-60(TB) leukemia, 14200 nM; in the test with IGROV1 ovarian it was 20400 nM; with LOX IMVI melanoma, 15800 nM. Besides, the GI50 with MDA-MB-435 is 29300 nM; in the test on MOLT-4 leukemia, 5940 nM; with UACC-62 melanoma it was 13400 nM; in the test with UO-31 renal it was 24600 nM. The TGI in the test with ACHN renal was over 100 µM; in the test with DU-145 prostate, over 100 µM; in the test with HCT-116 colon it was 38.7 µM; in the test on HL-60(TB) leukemia, over 100 µM; with IGROV1 ovarian it was over 100 µM; in the test with LOX IMVI melanoma, 95 µM. The TGI was over 100 µM in the test on MDA-MB-435, over 100 µM in the test with MOLT-4 leukemia, 31 µM with UACC-62 melanoma and over 100 µM with UO-31 renal.
As for `C=C1c2nc3ccccc3n2C=C(c2cccc(Cl)c2)N1Cc1ccc(OC)cc1`, the GI50 in the test with ACHN renal is 1110 nM; in the test on DU-145 prostate it was 1.8 µM; in the test with HCT-116 colon it was 496 nM; with HL-60(TB) leukemia it was 193 nM; with IGROV1 ovarian, 471 nM; with LOX IMVI melanoma, 878 nM. Besides, the GI50 is 158 nM in the test on MDA-MB-435, 2570 nM in the test on MOLT-4 leukemia, 937 nM in the test on UACC-62 melanoma and 1920 nM in the test with UO-31 renal. Moreover, the TGI with ACHN renal was over 100 µM; in the test with DU-145 prostate, over 53.5 µM; in the test with HCT-116 colon, 11.7 µM; in the test on HL-60(TB) leukemia, 0.639 µM; with IGROV1 ovarian it was 15.8 µM; in the test with LOX IMVI melanoma it was 21.5 µM. The results for the TGI with MOLT-4 leukemia, in the test on UACC-62 melanoma and in the test with UO-31 renal were 11.2 µM, 19.1 µM and 33.7 µM, respectively.
For the molecule `C=CCn1c2ccccc2c2c3c(c4c5ccccc5n(CC=C)c4c21)C(=O)N(O)C3=O`, the GI50 in the test with ACHN renal was 1600 nM; in the test on DU-145 prostate, 3.65 µM; in the test with HCT-116 colon it was 2290 nM; in the test on HL-60(TB) leukemia, 2090 nM; in the test on IGROV1 ovarian, 1400 nM; in the test on LOX IMVI melanoma it was 967 nM. Besides, the GI50 is 4450 nM in the test on MDA-MB-435, 1020 nM in the test on MOLT-4 leukemia, 1740 nM in the test with UACC-62 melanoma and 1750 nM in the test on UO-31 renal. In addition, the TGI in the test on ACHN renal is 3.89 µM; with DU-145 prostate it was over 100 µM; in the test with HCT-116 colon it was 12.5 µM; in the test on HL-60(TB) leukemia it was 4.31 µM; with IGROV1 ovarian, 3.8 µM; with LOX IMVI melanoma it was 2.43 µM. Further, the TGI in the test with MDA-MB-435 was 29.6 µM; with MOLT-4 leukemia, 5.12 µM; in the test on UACC-62 melanoma, 10.5 µM; in the test on UO-31 renal, 5 µM.
`c1ccc(-c2[nH]ncc2-c2ccnc(-c3ccc(OCCN4CCOCC4)cc3)c2)nc1`: the GI50 in the test on ACHN renal was over 25000 nM; in the test on DU-145 prostate, over 25 µM; in the test on HCT-116 colon it was over 25000 nM; in the test on HL-60(TB) leukemia it was over 25000 nM; with IGROV1 ovarian, over 25000 nM; with LOX IMVI melanoma it was over 25000 nM. Besides, the GI50 in the test on MDA-MB-435 is over 25000 nM; in the test on MOLT-4 leukemia, over 25000 nM; in the test with UACC-62 melanoma, over 25000 nM; with UO-31 renal, 24300 nM. The TGI in the test with ACHN renal, with DU-145 prostate, in the test on HCT-116 colon, in the test on HL-60(TB) leukemia, in the test with IGROV1 ovarian and with LOX IMVI melanoma was over 25 µM throughout. The TGI in the test on MDA-MB-435, in the test with MOLT-4 leukemia, in the test with UACC-62 melanoma and in the test on UO-31 renal was over 25 µM in each case.
`CC(C)(C)[Si](C)(C)OCC1OC(n2cnc3c(=O)[nH]cnc32)CC1O` (centres undefined): the TGI with ACHN renal, with DU-145 prostate, in the test on HCT-116 colon, with HL-60(TB) leukemia, in the test with IGROV1 ovarian and with LOX IMVI melanoma was over 100 µM each time. Further, the TGI in the test with MDA-MB-435, with MOLT-4 leukemia, with UACC-62 melanoma and in the test on UO-31 renal was over 100 µM in each case.
`CN1CCC2(CC1)N=C(SCC(=O)Nc1cnc3ccccc3c1)C(c1ccc(Br)cc1)=N2`: the GI50 with ACHN renal is 1700 nM; in the test on DU-145 prostate, 3.24 µM; with HCT-116 colon, 1770 nM; with HL-60(TB) leukemia, 1610 nM; in the test with IGROV1 ovarian it was 1770 nM; with LOX IMVI melanoma, 1660 nM. Moreover, the GI50 in the test with MDA-MB-435 was 1720 nM; in the test with MOLT-4 leukemia, 1930 nM; in the test on UACC-62 melanoma it was 1710 nM; in the test with UO-31 renal it was 1370 nM. Besides, the TGI in the test with ACHN renal is 3.39 µM; in the test with DU-145 prostate, 10.4 µM; with HCT-116 colon, 3.16 µM; in the test with HL-60(TB) leukemia, 3.75 µM; in the test on IGROV1 ovarian, 4.19 µM; in the test on LOX IMVI melanoma, 3.11 µM. For the same molecule, the TGI in the test on MDA-MB-435 is 3.21 µM; in the test with MOLT-4 leukemia it was 4.37 µM; with UACC-62 melanoma it was 3.21 µM; with UO-31 renal, 2.68 µM.
Turning to `C=C1C(=O)O[C@H]2[C@H]1CC/C(COC(=O)c1cccnc1N)=C\CC[C@@]1(C)O[C@@H]21`, the GI50 with ACHN renal is 1030 nM; in the test on DU-145 prostate, 2.45 µM; in the test on HCT-116 colon, 360 nM; in the test on HL-60(TB) leukemia, 262 nM; with IGROV1 ovarian it was 2560 nM; in the test with LOX IMVI melanoma, 3180 nM. Moreover, the GI50 is 2580 nM in the test on MDA-MB-435, 650 nM with MOLT-4 leukemia, 3020 nM with UACC-62 melanoma and 2170 nM in the test on UO-31 renal. The TGI in the test with ACHN renal worked out at 10.3 µM; with DU-145 prostate it was 12.7 µM; in the test on HCT-116 colon it was 1.26 µM; in the test on HL-60(TB) leukemia, 0.749 µM; in the test with IGROV1 ovarian, 11.6 µM; in the test with LOX IMVI melanoma it was 14 µM. The TGI is 12 µM with MDA-MB-435, 6.46 µM in the test with MOLT-4 leukemia, 13.3 µM in the test with UACC-62 melanoma and 10.2 µM with UO-31 renal.
On to `C[C@]12CC[C@H](O[C@@H]3O[C@H](CO[C@@H]4O[C@H](CO)[C@@H](O)[C@H](O)[C@H]4O)[C@@H](O)[C@H](O)[C@H]3O)C[C@@H]1CC[C@@H]1[C@@H]2CC[C@]2(C)[C@@H](C3=CC(=O)OC3)CC[C@]12O`, for which the TGI in the test on ACHN renal was over 100 µM; in the test with DU-145 prostate, 26.4 µM; in the test with HCT-116 colon it was 34.9 µM; with HL-60(TB) leukemia, 54.9 µM; in the test with IGROV1 ovarian, 56.3 µM; with LOX IMVI melanoma, 65.6 µM. In addition, the TGI in the test on MDA-MB-435 is over 100 µM; with MOLT-4 leukemia, over 41 µM; in the test with UACC-62 melanoma it was over 80.4 µM; in the test with UO-31 renal it was over 66.5 µM.
